For two compounds, zone of inhibition and MIC results are on record in ChEMBL document CHEMBL3045835, “Comparative study of conventional and microwave-assisted synthesis of some Schiff bases and their potential as antimicrobial agents” (2012).

Holding throughout (assay type): functional
One test relates to Aspergillus niger. As to the kind of experiment: Antifungal activity against Aspergillus niger MTCC 2546 at 100 ug/ml after 18 hr by cup-plate method. To be noted: MTCC 2546, 18 h, read-out: DIZ.
The subject of another test is Penicillium chrysogenum. The test is described as follows: Antifungal activity against Penicillium chrysogenum MTCC 161 at 100 ug/ml after 18 hr by cup-plate method. To be noted: MTCC 161, 18 h, read-out: DIZ.
The test system of test [1] is Bacillus pumilus. As to the kind of experiment: Antibacterial activity against Bacillus pumilus MTCC 1456 after 24 hr by broth dilution method. To be noted: MTCC 1456, 24 h.
Test [2] relates to Micrococcus luteus. The test is described as follows: Antibacterial activity against Micrococcus luteus MTCC 1538 after 24 hr by broth dilution method. To be noted: MTCC 1538, 24 h. In general terms: Dilution methods test growth across graded concentrations, often in twofold steps.
In test [3] the test system is Staphylococcus aureus. As to the kind of experiment: Antibacterial activity against Staphylococcus aureus MTCC 1430 at 100 ug/ml after 18 hr by cup-plate method. To be noted: MTCC 1430, 18 h, read-out: DIZ.
For test [4], the system named is Pseudomonas fluorescens. The test is described as follows: Antibacterial activity against Pseudomonas fluorescens MTCC 2421 at 100 ug/ml after 18 hr by cup-plate method. To be noted: MTCC 2421, 18 h, read-out: DIZ.
Test [5] deals with Bacillus subtilis. As to the kind of experiment: Antibacterial activity against Bacillus subtilis MTCC 441 at 100 ug/ml after 18 hr by cup plate method. To be noted: MTCC 441, 18 h, read-out: DIZ.
Test [6] deals with Pseudomonas fluorescens. The test is described as follows: Antibacterial activity against Pseudomonas fluorescens MTCC 2421 after 24 hr by broth dilution method. To be noted: MTCC 2421, 24 h.
The test system of test [7] is Pseudomonas aeruginosa. As to the kind of experiment: Antibacterial activity against Pseudomonas aeruginosa MTCC 424 after 24 hr by broth dilution method. To be noted: MTCC 424, 24 h.
The subject of test [8] is Bacillus subtilis. As to the kind of experiment: Antibacterial activity against Bacillus subtilis MTCC 441 after 24 hr by broth dilution method. To be noted: MTCC 441, 24 h.
The subject of test [9] is Micrococcus luteus. The test is described as follows: Antibacterial activity against Micrococcus luteus MTCC 1538 at 100 ug/ml after 18 hr by cup-plate method. To be noted: MTCC 1538, 18 h, read-out: DIZ.
Test [10] relates to Escherichia coli. As to the kind of experiment: Antibacterial activity against Escherichia coli MTCC 1573 after 24 hr by broth dilution method. To be noted: MTCC 1573, 24 h.
The subject of test [11] is Pseudomonas aeruginosa. As to the kind of experiment: Antibacterial activity against Pseudomonas aeruginosa MTCC 424 at 100 ug/ml after 18 hr by cup-plate method. To be noted: MTCC 424, 18 h, read-out: DIZ.
Test [12] deals with Escherichia coli. The test is described as follows: Antibacterial activity against Escherichia coli MTCC 1573 at 100 ug/ml after 18 hr by cup-plate method. To be noted: MTCC 1573, 18 h, read-out: DIZ.
Test [13] relates to Bacillus pumilus. As to the kind of experiment: Antibacterial activity against Bacillus pumilus MTCC 1456 at 100 ug/ml after 18 hr by cup-plate method. To be noted: MTCC 1456, 18 h, read-out: DIZ.
Test [14] concerns Staphylococcus aureus. As to the kind of experiment: Antibacterial activity against Staphylococcus aureus MTCC 1430 after 24 hr by broth dilution method. To be noted: MTCC 1430, 24 h.

In brackets after ≈: the same amount, converted by molar mass.

For the compound `OC(Cn1cncn1)(Cn1cncn1)c1ccc(F)cc1F` [FLUCONAZOLE], the zone of inhibition at 100 µg/mL is 28 mm with Aspergillus niger and 16 mm in the test on Penicillium chrysogenum.

Broadly, the MIC is the lowest concentration that inhibits growth of the organism. High values mean weaker potency, low ones greater potency. Consider `CCn1cc(C(=O)O)c(=O)c2cc(F)c(N3CCNCC3)cc21` [NORFLOXACIN], for which the MIC against Bacillus pumilus [1], against Micrococcus luteus [2], with Pseudomonas fluorescens [6], in the test on Pseudomonas aeruginosa [7], in the test on Bacillus subtilis [8] and with Escherichia coli [10] was 50 µg/mL (≈ 157 µM) throughout. For the same compound, in the test on Staphylococcus aureus [14], the MIC stood at 50 µg/mL (≈ 157 µM). Moreover, the zone of inhibition at 100 µg/mL with Staphylococcus aureus [3] worked out at 25 mm; in the test on Pseudomonas fluorescens [4] it was 25 mm; in the test on Bacillus subtilis [5] it was 23 mm; in the test on Micrococcus luteus [9], 26 mm; in the test on Pseudomonas aeruginosa [11] it was 28 mm; in the test with Escherichia coli [12] it was 36 mm. Moreover, the zone of inhibition at 100 µg/mL in the test with Bacillus pumilus [13] is 28 mm.
